Source: patent US20230137216A1, “Stabilization of Pharmaceutical Compositions Comprising Polysorbate” (LEK Pharmaceuticals d.d., priority 2020, published 2023)
Entries after “also recorded” stand apart in the source; their conditions may differ.

Tests used:
[1] = Accelerated stability testing of PS20 (polysorbate content by mixed-mode chromatography with CAD)
Experimental: (§1) PS20 or PS80 obtained from different manufacturers (see Table 1) was dissolved in 20 mM aqueous buffer at pH 5.5 or 6.5 in a glass vial to a final concentration of 0.02% (w/v) polysorbate. The buffer salts used in the histidine buffers investigated were histidine chloride (HisCl) and various further histidine buffer salts (see below, all obtained from Sigma-Aldrich (now Merck KgaA)).
(§2) Degradation mechanisms of the polysorbates were explored using 20 mM imidazole chloride and 20 mM alanine chloride buffer salts. Also, HisCl buffer salt comprising solutions were prepared with the additional excipients of mannitol or trehalose (both Sigma-Aldrich) to determine the influence of sugars and their derivatives on polysorbate degradation. Finally, two different mAbs were used as the active agent that each contained 10 mg/mL mAb, 0.02% PS80 HX2 and 20 mM HisCl buffer salt at pH 6.5. The therapeutic protein solutions were provided by Lek d.d. (Mengeš, Slovenia). In all cases, the starting point samples were collected immediately and stored at −80° C. The vials were then placed into a 50° C. incubator for up to 2 months, with samples collected at 1 month and further samples in some cases at 2 months. All of these samples were stored at −80° C. for subsequent analysis.
(§3) The polysorbate contents were analysed and quantified using a method based on mixed-mode chromatography, as mixed anion exchange and reversed phase, combined with a charged aerosol detector (CAD). The external standard approach was used for quantification of the surfactants. Chromatographic analysis was carried out using the method of Hewitt et al. (Hewitt, D. et al. J. Chromatogr. A 1218, 2138-2145 (2011).
(§4) Analytes were separated using a Waters Oasis MAX column (30 μm particle size, 2.1 mm×20 mm), column temperature 30° C., flow rate 1 ml/min and a total run time of 10 min. The injection volume was 10 μL. Initial conditions were set at 90% solvent A (2% formic acid in purified water) and 10% solvent B (2% formic acid in isopropanol). Solvent B was increased to 20% in the first minute and held for 2.4 min. POE sorbitan esters were eluted using a step gradient of 20% to 100% B over 0.1 min, followed by an equilibration step of 10% B for 0.9 min.

[2] = Accelerated stability testing of PS80 (polysorbate content by mixed-mode chromatography with CAD)
Experimental: as §1, §2, §3, §4

[3] = Accelerated stability testing of PS80 HX2 (polysorbate content by mixed-mode chromatography with CAD); conditions: for degradation of polysorbate 80 HX2: 0.02% w/v PS80 HX2, 20 mM histidine buffer salt, pH 6.5, 50° C.; for degradation of PS80 HX2 in the presence of mAb1 / degradation of PS80 HX2 in the presence of mAb2: pH 6.5
Experimental: as §1, §2, §3, §4

[4] = as reported in prior work; cited from earlier work
[5] = 0.02% w/v PS20, 20 mM histidine chloride, pH 6.5, 50° C., 1 month
[6] = 0.02% w/v PS80, 20 mM histidine chloride, pH 6.5, 50° C., 1 month

OC[C@@H](O)[C@@H](O)[C@H](O)[C@H](O)CO [mannitol]
effect of added excipient on degradation of PS20 ([1]; pH 6.5): did not slow down the degradation | effect of added excipient on degradation of PS80 ([2]; pH 6.5): did not slow down the degradation

[Cl-].[Na+] [NaCl]
effect of added excipient on degradation of PS20 [1, 5]: did not slow down the degradation | effect of added excipient on degradation of PS80 [2, 6]: did not slow down the degradation

Cl.c1c[nH]cn1 [imidazole chloride]
degradation of PS80 HX2 ([3]; 0.02% w/v PS80 HX2, 20 mM buffer salt, AlaCl pH 5.0 or 6.0, ImiCl pH 5.0, 6.5 or 7.0, 50° C., 1 month): degraded almost entirely; also recorded: Polysorbate degradation was detected

O=C(O)CN(CCN(CC(=O)O)CC(=O)O)CC(=O)O [EDTA]
effect of added excipient on degradation of PS20 [1, 5]: did not slow down the degradation | effect of added excipient on degradation of PS80 [2, 6]: did not slow down the degradation

CC(=O)O.N[C@@H](Cc1c[nH]cn1)C(=O)O [histidine acetate]
oxidative degradation in buffer system of histidine and histidine acetate [4]: promoted oxidative degradation

OC[C@H]1O[C@H](O[C@H]2O[C@H](CO)[C@@H](O)[C@H](O)[C@H]2O)[C@H](O)[C@@H](O)[C@@H]1O [trehalose]
effect of added excipient on degradation of PS20 ([1]; pH 6.5): did not slow down the degradation | effect of added excipient on degradation of PS80 ([2]; pH 6.5): did not slow down the degradation

histidine glutarate
degradation of polysorbate 80 HX2 ([3]; 1 month): major to almost complete degradation

polyoxyethylene (20) sorbitan monooleate [PS80]
rate of degradation compared with PS20 samples from the same manufacturer ([2]; pH 5.5): generally degrading faster

histidine chloride [reference compound]
degradation of PS80 HX2 in the presence of mAb1 [3]: significant degradation | degradation of PS80 HX2 in the presence of mAb2 [3]: significant degradation | degradation of PS20 ([1]; pH 5.5): severe degradation | degradation of PS20 (Merck) ([1]; pH 5.5): showed degradation | degradation of PS80 ([2]; pH 5.5): severe degradation | degradation of PS80 (Merck) ([2]; pH 5.5): showed degradation

N[C@@H](Cc1cnc[nH]1)C(=O)O.O=C(O)CCC(=O)C(=O)O [histidine α-ketoglutarate]
degradation of polysorbate 80 HX2 ([3]; 1 month): major to almost complete degradation

alanine chloride
degradation of PS80 HX2 ([3]; pH 5): no degradation

N[C@@H](Cc1c[nH]cn1)C(=O)O.O=C(O)CC(O)C(=O)O [histidine malate]
degradation of PS80 HX2 in the presence of mAb1 [3]: no significant degradation | degradation of PS80 HX2 in the presence of mAb2 [3]: no significant degradation | degradation of PS20 (Merck) ([1]; pH 5.5): significantly less degradation | degradation of PS80 (Merck) ([2]; pH 5.5): significantly less degradation
